Consider one compound from US20090149469A1, “Phenyl-[4-(3-phenyl-1h-pyrazol-4-yl)-pyrimidin-2-yl]-amine derivatives as igf-ir inhibitors” (priority 2004, published 2009).

Structures are written as SMILES.

The target in this assay is T1, human IGF-IR (Homo sapiens, UniProt P08069).
T1 construct: complete human IGF-IR cDNA: GenBank Acc; No. NM_000875; expressed in transfected cells; host or cells: NIH-3T3 mouse fibroblasts
Nature of the assay: cellular Capture ELISA: IGF-I induced autophosphorylation of IGF-IR in NIH-3T3 cells transfected with human IGF-IR. The class given is cell-based. As to conditions: by the methods described above. The method, then: In this assay the activity of the compounds of the invention against Insulin-like growth factor I (IGF-1) induced autophosphorylation of the IGF-IR is determined. The assay is conducted as follows: For the assay NIH-3T3 mouse fibroblasts transfected with human IGF-IR cDNA (complete human IGF-IR cDNA: GenBank Acc. No. NM_000875), prepared as described in Kato et al., J. Biol. Chem. 268, 2655-61, 1993, are used. The cells which overexpress human IGF-IR are cultured in Dulbecco's minimal essential (DMEM) medium, containing 10% Fetal Calf Serum (FCS). For the assay 5,000 cells/well are plated on day 1 on 96-well plates (Costar #3595) in normal growth medium and incubated for 2 days at 37° C. in a standard CO2 cell incubator. […] On day 3 the medium is discarded and the cells are incubated for 24 h in minimal medium (DMEM, containing 0.5% FCS). […]
90 μl/well AP substrate (CDP-Star; obtained from Tropix; Cat. No.: MS100RY) are then added and the plates are incubated for 45 min at RT in the dark, followed by measuring AP activity in a Packard Top Count Microplate Scintillation Counter. The IC50 values for the compounds of formula I are calculated via linear regression analysis using the GraphPad Instat program (GraphPad Software, USA). […]
In general terms: ELISA stands for enzyme-linked immunosorbent assay.

T1 sequence (P08069 31-1367): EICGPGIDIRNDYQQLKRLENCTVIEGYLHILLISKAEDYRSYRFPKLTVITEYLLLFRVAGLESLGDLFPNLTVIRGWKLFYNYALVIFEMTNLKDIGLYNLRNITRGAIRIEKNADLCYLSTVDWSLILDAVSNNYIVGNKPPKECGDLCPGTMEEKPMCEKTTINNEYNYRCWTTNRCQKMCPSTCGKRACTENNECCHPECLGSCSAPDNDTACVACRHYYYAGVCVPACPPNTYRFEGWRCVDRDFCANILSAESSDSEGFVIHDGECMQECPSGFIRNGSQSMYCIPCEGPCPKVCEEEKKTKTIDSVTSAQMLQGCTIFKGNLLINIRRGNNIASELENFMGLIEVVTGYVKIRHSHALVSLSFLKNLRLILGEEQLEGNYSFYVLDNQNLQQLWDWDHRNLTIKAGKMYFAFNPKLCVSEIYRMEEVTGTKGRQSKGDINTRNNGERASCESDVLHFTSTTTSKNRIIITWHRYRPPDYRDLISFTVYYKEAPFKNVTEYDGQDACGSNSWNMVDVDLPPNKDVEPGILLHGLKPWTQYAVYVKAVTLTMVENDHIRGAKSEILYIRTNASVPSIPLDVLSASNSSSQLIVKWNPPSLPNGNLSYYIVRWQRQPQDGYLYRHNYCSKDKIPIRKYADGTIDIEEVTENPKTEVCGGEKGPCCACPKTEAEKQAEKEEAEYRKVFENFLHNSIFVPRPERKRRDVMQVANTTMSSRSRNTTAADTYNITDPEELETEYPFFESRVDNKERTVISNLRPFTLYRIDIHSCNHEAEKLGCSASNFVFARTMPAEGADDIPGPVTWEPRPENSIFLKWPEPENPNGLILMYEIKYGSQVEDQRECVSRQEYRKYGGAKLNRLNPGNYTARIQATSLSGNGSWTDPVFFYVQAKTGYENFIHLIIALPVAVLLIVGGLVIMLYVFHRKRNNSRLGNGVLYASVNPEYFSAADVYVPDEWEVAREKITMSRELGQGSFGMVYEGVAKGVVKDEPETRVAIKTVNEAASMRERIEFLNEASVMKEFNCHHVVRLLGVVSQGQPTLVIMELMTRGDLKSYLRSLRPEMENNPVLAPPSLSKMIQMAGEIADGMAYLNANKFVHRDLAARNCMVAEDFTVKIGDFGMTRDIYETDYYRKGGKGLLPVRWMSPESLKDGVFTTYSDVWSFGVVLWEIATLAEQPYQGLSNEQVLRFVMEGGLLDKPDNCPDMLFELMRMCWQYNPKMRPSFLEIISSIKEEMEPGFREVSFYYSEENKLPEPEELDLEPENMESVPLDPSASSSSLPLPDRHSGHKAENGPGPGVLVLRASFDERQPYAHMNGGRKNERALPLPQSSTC

On to `CN(C)CCOc1ccc(Nc2nccc(-c3c[nH]nc3-c3ccc(OCc4ccccc4)cc3)n2)cc1` [Example 6, {4-[3-(4-Benzyloxy-phenyl)-1H-pyrazol-4-yl]-pyrimidin-2-yl}-[4-(2-dimethylamino-ethoxy)-phenyl]-amine], for which the “inhibition of IGF-1R (in words)” value is on record as “shows inhibition”.
